{"source": "patent US7795305B2", "about": "“CDDO-compounds and combination therapies thereof” (Board of Regents, The University of Texas System, priority 2000, dated 2010)", "key": {"U937 and HL-60 cells": {"test_system": "U937 and HL-60 cells", "experiment": "Phi-Phi-Lux cleavage with caspase-3 inhibitor Z-DEVD-fmk pre-treatment", "type": "cell-based, human", "experimental": "Detection of active caspases. The cell-permeable fluorogenic substrate Phi-Phi-Lux-G1D2 was administered to monitor caspase activity according to the manufacturer's recommendations (OncoImmunin, Inc, Kensington, Md.). Briefly, 10^6 cells were resuspended in 5 μL of substrate solution and incubated for 1 hour at 37° C. in the dark. After incubation, cells were washed, and the fluorescence emission was determined using the FL-1 channel of a Becton Dickinson FACScan flow cytometer.\nCDDO-Me. […] Effects of CDDO-Me on the cleavage of caspase-3 were analyzed utilizing the fluorogenic substrate of caspase-3 Phi-Phi-Lux."}, "HL-60 cells": {"test_system": "HL-60 cells", "experiment": "Mitochondrial membrane potential (JC-1, CMXRos)", "type": "cell-based, human", "details": "for cells with low CMXRos staining / cells with low JC-1: 1 μM", "experimental": "Cytofluorometric analysis of the Δψm. To evaluate the Δψm, cells were incubated with the cationic lipophilic dye […] (CMXRos; 150 nM; Molecular Probes, Inc., Eugene, Oreg.). CMXRos is incorporated into mitochondria driven by the […] and reacts with thiol residues to form covalent thiol ester bonds. CMXRos fluorescence was recorded by flow cytometry in the FL3 channel. Background values of the apoptosis of control cells cultured without the CDDO-Me or in DMSO-solvent control (<10% CMXRos-low) were subtracted from the values obtained under the experimental conditions.\nIn a series of experiments, cells were pretreated for 1 hour with 50 μM CyA or 50 μM BA prior to the addition of CDDO-Me. These agents prevent a reduction in Δψm induced by various agents that open mitochondrial permeability transition pores.\nAn early mitochondrial disruption has been observed in a number of different models of apoptosis. Changes in the cellular content of the cationic lipophilic fluorochrome CMXRos were determined by FACS analysis to measure loss of the mitochondrial membrane potential (Δψ) (Macho et al., 1996). […] Similarly, exposure of HL-60 to CDDO-Me (1 μM) for 2 and 4 hrs increased the number of cells with low JC-1 (57 and 60%) or CMXRos staining (46 and 57%), both assays measuring the decrease in Δψ. CDDO-Me-induced changes in the mitochondrial membrane potential of the cells preceded caspase activation and changes in the composition of the plasma membrane. In order to validate the role of the dissipation of Δψ in CDDO-treated cells the pharmacological inhibitors of permeability transition cyclosporin A (CyA) (Nicolli et al., 1996) (10 μM, Sandoz) and bongkrekic acid (BA) (Marchetti et al., 1996) (Calbiochem, Calif.) were used. […] The same effect was observed using BA (52% in CDDO-Me treated HL-60 cells, 23% when cells were pre-treated with BA)."}, "Bcl-2 phosphorylation": {"test_system": "Bcl-2 phosphorylation", "experiment": "Bcl-2 phosphorylation, 32P metabolic labeling", "type": "cell-based", "details": "0.1 μM", "experimental": "Metabolic labeling, immunoprecipitation, and immunoblot analysis. Cells were labeled with [^32P]orthophosphoric acid and then treated with 0.1 μM CDDO-Me or CDDO, after which Bcl-2 was analyzed by immunoprecipitation, as previously described Samples were electrophoresed in a 12% acrylamide/0.1% SDS gel, transferred to nitrocellulose, and exposed to Hyperfilm (Amersham Pharmacia Biotech, UK) at −80° C. The same blot was used for western blot analysis with anti-Bcl-2 antisera.\n(§1) The effect of CDDO-Me on Bcl-2 phosphorylation was further investigated by performing metabolic labeling studies with ^32P-orthophosphoric acid. […] To further investigate mechanisms of inhibition of Bcl-2 phosphorylation that could may a role in CDDO-Me-induced cell death, the inventors selected U937 cells that were stably transfected with a serine 70→alanine, Bcl-2 mutant (S70A)."}, "U937/wt": {"test_system": "U937/wt", "experiment": "Viability of Bcl-2 transfectants", "type": "cell-based, human", "details": "0.1 μM", "source_text": "Cell lines. HL-60, KG-1, U937, and Jurkat cell lines were obtained from the American Type Culture Collection (Rockville, Md.). NB4 cells were kindly provided by Dr. M. Lanotte. HL-60-doxorubicin-resistant cells (HL-60-DOX) were also used. U937/Bcl-2 and its appropriate vector controls (U937/pCEP) were provided by Dr. S. Grant. U937 cells were transfected with WT, S70A, or S70E cDNA containing cytomegalovirus plasmids by electroporation (200 V, 975 μF capacitance) and selected and maintained in the medium plus 500 μg/mL G418 (Gibco BRL, Gaithersburg, Md.)\nas §1"}, "PPARα receptor": {"biological_target": "PPARα receptor (Homo sapiens, UniProt Q07869)", "sequence (Q07869 whole entry)": "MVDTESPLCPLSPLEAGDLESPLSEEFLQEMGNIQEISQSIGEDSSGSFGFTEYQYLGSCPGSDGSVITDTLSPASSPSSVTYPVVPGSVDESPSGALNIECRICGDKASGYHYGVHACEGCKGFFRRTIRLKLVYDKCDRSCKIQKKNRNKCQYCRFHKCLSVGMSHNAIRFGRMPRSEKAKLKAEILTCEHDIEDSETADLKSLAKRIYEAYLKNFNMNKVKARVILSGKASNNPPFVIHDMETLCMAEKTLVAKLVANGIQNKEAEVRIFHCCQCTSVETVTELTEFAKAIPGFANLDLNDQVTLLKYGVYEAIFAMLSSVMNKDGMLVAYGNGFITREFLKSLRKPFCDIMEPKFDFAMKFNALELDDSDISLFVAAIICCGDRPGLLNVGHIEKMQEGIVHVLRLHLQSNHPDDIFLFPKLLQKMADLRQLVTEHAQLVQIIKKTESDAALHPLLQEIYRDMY", "experiment": "Transactivation of PPARα", "type": "cell-based"}, "[1]": {"test_system": "human leukemic KBM-3 cells", "experiment": "Engraftment of leukemic cells in NOD/Scid mice, FISH", "type": "in vivo", "details": "6 mg/kg/day IP for 10 days", "experimental": "The effect of CDDO on engraftment of leukemic cells was further tested in NOD/Scid mice transplanted with 1×10^6 human leukemic KBM-3 cells. Eleven mice were treated with CDDO at 6 mg/kg/day IP (divided in 3 injections per day) for 10 days; a control set of 9 mice received vehicle alone. The engraftment of human leukemic cells was determined by FISH based on the known karyotype of the cells (trisomy 8) at 5 weeks following transplantation. While 10.6±2.7% cells were leukemic in the bone marrow of the control group (range 0.12-21%), only 3±2.4% leukemic cells were found in CDDO-treated mice (range 0.04-12.5%, p=0.016). 5/11 CDDO-treated animals but only ⅛ controls had <1% leukemic cells by FISH analysis."}, "U937 cells": {"test_system": "U937 cells", "experiment": "Apoptotic sub-G1 cells", "type": "cell-based, human", "details": "1 μM, 48 hrs", "experimental": "Cell kinetic and DNA fragmentation studies. The cell cycle kinetics was determined by staining cells with acridine orange for cellular DNA and RNA content followed by flow cytometeric analysis as described. Samples were measured in a FACScan flow cytometer (Becton Dickinson, San Jose, Calif.) using the 488-nm line of a […] argon laser and filter settings for green (530 nm) (DNA) and red (585 nm) (RNA) fluorescence. Ten thousand events were stored in list mode for analysis. The percentage of cells in the “sub G1 peak” defined the proportion of apoptotic cells in the tested populations. […] Cell-cycle kinetics was analyzed using ModFit software (Verity Software House, Inc., Topsham, Me.)."}}, "data": [{"smiles": "COC(=O)[C@]12CCC(C)(C)C[C@H]1[C@H]1C(=O)C=C3[C@@]4(C)C=C(C#N)C(=O)C(C)(C)[C@@H]4CC[C@@]3(C)[C@]1(C)CC2", "note": "[CDDO-Me]", "values": [{"measurement": "cleavage of Phi-Phi-Lux", "setting": "U937 and HL-60 cells; CDDO-Me without inhibitor", "value": 15.1, "unit": "%"}, {"measurement": "cleavage of Phi-Phi-Lux", "setting": "U937 and HL-60 cells; pre-treatment with 25 μM Z-DEVD-fmk for 1 hour", "value": 2.7, "unit": "%"}, {"measurement": "cells with low CMXRos staining", "setting": "HL-60 cells; 2 hrs", "value": 46, "unit": "%"}, {"measurement": "cells with low JC-1", "setting": "HL-60 cells; 2 hrs", "value": 57, "unit": "%"}, {"measurement": "cells with low CMXRos staining", "setting": "HL-60 cells; 4 hrs", "value": 57, "unit": "%"}, {"measurement": "cells with low JC-1", "setting": "HL-60 cells; 4 hrs", "value": 60, "unit": "%"}, {"measurement": "cells with Δψ loss", "setting": "HL-60 cells; CDDO-Me alone", "value": 52, "unit": "%"}, {"measurement": "cells with Δψ loss", "setting": "HL-60 cells; cells pre-treated with bongkrekic acid (BA)", "value": 23, "unit": "%"}, {"measurement": "Bcl-2 phosphorylation", "setting": "Bcl-2 phosphorylation", "value": "virtually abrogated"}, {"measurement": "viable cells", "setting": "U937/wt", "value": 30, "unit": "%"}]}, {"smiles": "CC1(C)CCC2(C(=O)O)CCC3(C)C(C(=O)C=C4C5(C)C=C(C#N)C(=O)C(C)(C)C5CCC43C)C2C1", "note": "(stereo not drawn) [CDDO, 2-cyano-3,12-dioxoolen-1,9-dien-28-oic acid]", "values": [{"measurement": "transactivation of PPARα receptor", "setting": "PPARα receptor", "value": "did not transactivate"}, {"measurement": "animals with <1% leukemic cells by FISH", "setting": "[1]", "value": "5/11"}, {"measurement": "leukemic cells in the bone marrow, range", "setting": "[1]", "value": "0.04-12.5%"}, {"measurement": "leukemic cells in the bone marrow (FISH)", "setting": "[1]; 5 weeks after transplantation (control 10.6±2.7%)", "value": "3±2.4", "unit": "%"}, {"measurement": "apoptotic sub-G1 cells", "setting": "U937 cells", "value": 69.4, "unit": "%"}]}]}
